Measured values from patent publication US7601736B2, “Pyridine derivatives, a process for their preparation and a pharmaceutical composition containing the same” (SK Chemicals Co., Ltd., priority 2003, dated 2009).

What was measured:
[1] = system: IL-1α; test: Cytokine inhibitory activity in human whole blood (LPS), IL-1α ELISA; format: cell-based; conditions: LPS 1 μg/mL, read-out: IL-1α Inhibition rate (conc.); for inhibition at 0.1 µg/mL: test conc. 100 ng/mL
Method: (§1) 20 mL of venous whole blood collected respectively from 5 healthy volunteers of men or women, who had never been medicated with anti-inflammatory drugs within the last two weeks, and was added with heparin. 1 mL each of the above blood was respectively collected, and transferred into test tubes in which it was mixed with test material. The above mixture was precultured at 37° C. for about 1 hour. Then it was added with 1 μg/mL of LPS (lipopolysaccharide), allowed to react at the same temperature for about 4 to about 12 hours and then centrifuged at 4° C. at the rate of 3000 rpm for about 10 minutes. Thus produced plasma was respectively collected and its TNF-α in each plasma was quantitated using human TNF-α ELISA kit based on the amount of recombinant TNF-α in humans. The plate used was coated with anti-human TNF-α monoclone IgG antibodies. Likewise, for the test of IL-1α, IL-1α in each plasma was quantitated using the above plasma and human IL-1α ELISA kit based on the amount of recombinant IL-1α in humans. The plate used was coated with anti-human IL-1α monoclone IgG antibodies. Further, for the test of PGE2, PGE2 in each plasma was quantitated using the above plasma and PGE2 ELISA kit based on the amount of recombinant PGE2 in humans. The plate used was coated with anti-human PGE2 monoclone IgG antibodies. From the above tests, inhibitory rates on the expression of each cytokine were obtained and they were compared to that of Indomethacin.

[2] = system: TNF-α; test: Cytokine inhibitory activity in cells: LPS-induced TNF-α in RAW 264.7; format: cell-based, murine; conditions: Mus musculus, RAW264.7, RAW 264.7, LPS 1 μg/mL, read-out: TNF-α Inhibition Rate (%); for inhibition at 1 µM: test conc. 1 μM; for inhibition at 10 µM: test conc. 10 μM; for inhibition at 100 µM: test conc. 100 μM; for inhibition at 1000 µM: test conc. 1 mM
Method: General reagents used were purchased from Sigma-Aldrich chem. Co. and cytokine inhibitory activities were tested as follows. Mediums and reagents used in cell culture were purchased from GIBCO BRL (USA), and mouse TNF-α ELISA kit was purchased from R&D system (USA). The apparatus used ELISA reader (Spectra max-Plus 384, Molecular Device, USA).
Murine macrophage cell line RAW 264.7 was kindly provided by Korean Tissue Culture Center (KTCC). The cell line was cultured in DMEM medium containing 10% FBS, in a cell culturing device at the condition of 37° C., 5% CO2. First, murine RAW 264.7 was cultured in DMEM medium containing 10% FBS for about 24 hours, and cells were planted 200 μL each in 96 well plates at the concentration of 5×10^5/mL and cultured for about 24 hours. Then, test compounds were treated at various concentrations and then reacted at 37° C. for about 1 hour, wherein 1 μg/mL of lipopolysaccharide (LPS) was added thereto and reacted at 37° C. for about 12 hours. The supernatant was recovered and the amount of murine TNF-α on the medium was quantitated using ELISA kit. Thalidomide was respectively used as a positive and a negative control to compare the activities and the results are shown in the following tables 4a -4c.

[3] = system: TNF-α; test: Cytokine inhibitory activity in animal model (LPS-treated SD rats), plasma TNF-α; format: in vivo, Sprague Dawley (SD) rats; conditions: Rattus norvegicus, 2 h; SD rats, oral, LPS; 40 mg/kg; read-out: TNF-α Inhibition Rate (Conc.)
Method: (§2) Sprague Dawley (SD) rats with body weights of about 180 to about 200 g were fasted (free drinking) and then tested. Test compounds were administered orally at 40 mg/kg and then abdominally administered with LPS 1 μg/mL after 1 hour. After 2 hours, the rats were sacrificed and bloods were collected from abdominal vein, stored at room temperature for about 2 hours, and then centrifuged at 12,000 rpm for about 2 minutes. Thus produced plasma was respectively collected and its TNF-α in each plasma was quantitated using mouse TNF-α ELISA kit based on the amount of recombinant TNF-α in rats. The plate used was coated with anti-rat TNF-α monoclone IgG antibodies. Likewise, for the test of IL-1α, IL-1α in each plasma was quantitated using the above plasma and mouse IL-1α ELISA kit based on the amount of recombinant IL-1α in rats. The plate used was coated with anti-rat IL-1α monoclone IgG antibodies. Further, for the test of IL-6, IL-6 in each plasma was quantitated using the above plasma and mouse IL-6 ELISA kit based on the amount of recombinant IL-6 in rats. Further, for the test of INF-γ, INF-γ in each plasma was quantitated using the above plasma and mouse INF-γ ELISA kit based on the amount of recombinant INF-γ in rats. The plate used was coated with anti-rat INF-γ monoclone IgG antibodies. From the above tests, inhibitory rates on the expression of each cytokine were obtained and they were compared to that of Indomethacin.

[4] = system: ICR (Institute of Cancer Research) mouse; test: Arachidonic acid-induced ear edema test; format: in vivo; conditions: oral
Method: (§3) Male ICR (Institute of Cancer Research) mouse with body weight of about 20 to 30 g were tested wherein each group had 6 mouses. After 1 hour of the oral administration of a test compound, Arachidonic acid (in acetone solution) was coated on one of the ears. After 1 hour, the thickness of the swollen ear in treated group was compared with the other unswollen ear and obtained the average increase rate in thickness of ear by the treatment.

[5] = system: TNF-α; test: Cytokine inhibitory activity in human whole blood (LPS), TNF-α ELISA; format: cell-based; conditions: LPS 1 μg/mL, read-out: TNF-α Inhibition rate (conc.); for inhibition at 0.1 µg/mL: test conc. 100 ng/mL
Method: as §1

[6] = system: ICR (Institute of Cancer Research) mouse; test: Analgesic test (acetic acid-induced stretchings); format: in vivo; conditions: oral
Method: Male ICR (Institute of Cancer Research) mouse with body weight of about 20 to 30 g were tested wherein each group had 6 mouses. After 1 hour of the oral administration of a test compound, acetic acid (in distilled water) was abdominally administered. For the duration of 10 minutes, the animals were observed regarding the number of stretchings and the number was compared with that of placebo treated group and the result is shown in the following table 7.

[7] = system: ICR (Institute of Cancer Research) mouse; test: Croton oil-induced ear edema test; format: in vivo; conditions: oral
Method: as §3, with “Croton oil” for “Arachidonic acid”, “4 hours,” for “1 hour,”

[8] = system: INF-γ; test: Cytokine inhibitory activity in animal model (LPS-treated SD rats), plasma INF-γ; format: in vivo, Sprague Dawley (SD) rats; conditions: oral
Method: as §2, with “Test compounds were administered orally at 40 mg/kg and then abdominally administered with LPS 1 μg/mL after 1 hour.” left out

[9] = system: IL-6; test: Cytokine inhibitory activity in animal model (LPS-treated SD rats), plasma IL-6; format: in vivo, Sprague Dawley (SD) rats; conditions: oral
Method: as §2, with “Test compounds were administered orally at 40 mg/kg and then abdominally administered with LPS 1 μg/mL after 1 hour.” left out

[10] = system: IL-1α; test: Cytokine inhibitory activity in animal model (LPS-treated SD rats), plasma IL-1α; format: in vivo, Sprague Dawley (SD) rats; conditions: oral
Method: as §2, with “Test compounds were administered orally at 40 mg/kg and then abdominally administered with LPS 1 μg/mL after 1 hour.” left out

[11] = system: PGE2; test: Cytokine inhibitory activity in human whole blood (LPS), PGE2 ELISA; format: cell-based; conditions: LPS 1 μg/mL, read-out: PGE2 Inhibition rate (conc.); for inhibition at 300 µg/mL: test conc. 300 μg/mL
Method: as §1

[12] = system: TNF-α; test: Cytokine inhibitory activity in animal model (LPS-treated SD rats), plasma TNF-α; format: in vivo, Sprague Dawley (SD) rats; conditions: Rattus norvegicus, 2 h, oral, read-out: TNF-α Inhibition Rate (Conc.)

SMILES	inhibition at 0.1 µg/mL [1]	inhibition at 1 µM [2]	inhibition at 10 µM [2]	inhibition at 100 µM [2]	inhibition at 1000 µM [2]	inhibition in vivo at 40 mg/kg [3]	Inhibition Rate (%) ([4]; 2 mg/kg)	Inhibition Rate (%) ([4]; 10 mg/kg)	Inhibition Rate (%) ([4]; 50 mg/kg)	inhibition at 0.1 µg/mL [5]	Inhibition Rate (%) ([6]; 10 mg/kg)	Inhibition Rate (%) ([6]; 50 mg/kg)	Inhibition Rate (%) ([7]; 2 mg/kg)	Inhibition Rate (%) ([7]; 10 mg/kg)	Inhibition Rate (%) ([7]; 50 mg/kg)	INF-γ Inhibition rate (conc.) ([8]; 40 mg/kg)	IL-6 Inhibition rate (conc.) ([9]; 40 mg/kg)	IL-α Inhibition rate (conc.) ([10]; 40 mg/kg)	inhibition at 300 µg/mL [11]	other results
O=C1OCCc2ccncc21 [Ex. 3, 3,4-dihydro-pyrano[3,4-c]pyridine-1-on]	95%	34%	35%	43%	44%	75%	33%	51%	46%	90%	76%	92%	33%	56%	57%	48% (40 mg/kg)	71% (40 mg/kg)	65% (40 mg/kg)	24%	–
C=Cc1cncc2c1CCOC2=O [Ex. 9, 5-vinyl-3,4-dihydro-pyrano[3,4-c]pyridine-1-on]	93%	37%	38%	39%	41%	59%	21%	29%	39%	82%	73%	76%	25%	44%	37%	45% (40 mg/kg)	43% (40 mg/kg)	62% (40 mg/kg)	38%	–
Cc1cc2c(cn1)C(=O)OCC2 [Ex. 6, 6-methyl-3,4-dihydro-pyrano[3,4-c]pyridine-1-on]	90%	30%	35%	36%	38%	39%	21%	36%	41%	84%	76%	75%	17%	39%	69%	51% (40 mg/kg)	78% (40 mg/kg)	52% (40 mg/kg)	23%	–
COc1ccc2c(c1)c(CC(=O)O)c(C)n2C(=O)c1ccc(Cl)cc1 [Indomethacin, reference compound]	–	–	–	–	–	–	–	–	–	–	–	–	–	–	–	–	–	–	–	inhibition at 200 µg/mL ([1]; test conc. 200 μg/mL): 25%; inhibition at 200 µg/mL ([5]; test conc. 200 μg/mL): 37%; inhibition in vivo at 200 mg/kg [12]: 46%; INF-γ Inhibition rate (conc.) ([8]; 200 mg/kg): 13% (200 mg/kg); IL-6 Inhibition rate (conc.) ([9]; 200 mg/kg): 60% (200 mg/kg); IL-α Inhibition rate (conc.) ([10]; 200 mg/kg): 24% (200 mg/kg); inhibition at 200 µg/mL ([11]; test conc. 200 μg/mL): 37%
